Measured values: PubChem BioAssay AID206 (DTP/NCI, 2004)
Values joined by “and” are separate entries in the source; they are usually repeats but may differ in a detail not shown here. Identical values can stand only once. Inconclusive results are not listed.

Test system: nude mice, HT29 intrarenal xenograft, tumor weight T/C
Assay: NCI In Vivo Anticancer Drug Screen. Data for tumor model HT29;CX-1 Human Adenocarcinoma (MER+) (intrarenal inoculation) in NU/NU Swiss (nude) mice
Details: endpoint: mean tumor weight change, higher = larger tumour
In short: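 T/C = treated-group value ÷ vehicle-group value, using tumor size or survival.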

[1] = dose: 600.0 mg/kg/injection, schedule: Q04DX004 (sc), vehicle: saline with Tween-80
[2] = dose: 150.0 mg/kg/injection, schedule: Q04DX004 (sc), vehicle: saline with Tween-80
[3] = dose: 75.0 mg/kg/injection, schedule: Q04DX004 (sc), vehicle: saline

CCSC(=O)N1c2ccc(OC)cc2C=CC1C#N (stereo unspecified)
T/C [1]: 93 % of control
T/C (dose: 1200.0 mg/kg/injection, schedule: Q04DX004 (sc), vehicle: saline with Tween-80): 84 % of control
T/C (dose: 2400.0 mg/kg/injection, schedule: Q04DX004 (sc), vehicle: saline with Tween-80): 53 % of control

O=c1[nH]cnc2n[nH]nc12
T/C (dose: 300.0 mg/kg/injection, schedule: Q04DX004 (sc), vehicle: Klucel (hydroxypropylcellulose) (HPC)): 94 % of control
T/C (dose: 600.0 mg/kg/injection, schedule: Q04DX004 (sc), vehicle: Klucel (hydroxypropylcellulose) (HPC)): 50 % of control
T/C (dose: 2400.0 mg/kg/injection, schedule: Q04DX004 (sc), vehicle: Klucel (hydroxypropylcellulose) (HPC)): 30 % of control

O=C1C=CC(=O)N1c1ccc(Cl)cc1
T/C (dose: 37.5 mg/kg/injection, schedule: Q04DX004 (sc), vehicle: Klucel (hydroxypropylcellulose) (HPC)): 70 % of control
T/C (dose: 75.0 mg/kg/injection, schedule: Q04DX004 (sc), vehicle: Klucel (hydroxypropylcellulose) (HPC)): 70 % of control
T/C (dose: 150.0 mg/kg/injection, schedule: Q04DX004 (sc), vehicle: Klucel (hydroxypropylcellulose) (HPC)): 106 % of control

CC(=O)O[C@@H]1CO[C@H]2O[C@H]3[C@@H](C(C=O)=C[C@H](O)[C@@H]4C5=C(C(C)C)CC[C@]5(C)CC[C@@]34C)[C@@]2(O)C1=O
T/C (dose: 12.5 mg/kg/injection, schedule: Q04DX004 (sc), vehicle: Klucel (hydroxypropylcellulose) (HPC)): 110 % of control
T/C (dose: 25.0 mg/kg/injection, schedule: Q04DX004 (sc), vehicle: Klucel (hydroxypropylcellulose) (HPC)): 83 % of control
T/C (dose: 50.0 mg/kg/injection, schedule: Q04DX004 (sc), vehicle: Klucel (hydroxypropylcellulose) (HPC)): 76 % of control
T/C (dose: 100.0 mg/kg/injection, schedule: Q04DX004 (sc), vehicle: Klucel (hydroxypropylcellulose) (HPC)): 58 % of control

CCCCCCCCCCCCCCCCS(=O)CC(O)COC(=O)c1ccc(C(=O)OCC(O)CS(=O)CCCCCCCCCCCCCCCC)cc1 (stereo unspecified)
T/C (dose: 50.0 mg/kg/injection, schedule: Q01DX010 (sc), vehicle: saline + Tween-80 + alcohol): 114 % of control
T/C (dose: 400.0 mg/kg/injection, schedule: Q01DX010 (sc), vehicle: saline + Tween-80 + alcohol): 93 % of control and 110 % of control

CC1(C)OC2C(COC(=O)c3ccc([N+](=O)[O-])cc3)OC(NC(=O)N(CCCl)N=O)C2O1 (stereo unspecified)
T/C [2]: 38 % of control
T/C (dose: 300.0 mg/kg/injection, schedule: Q04DX004 (sc), vehicle: saline with Tween-80): 26 % of control
T/C [1]: 70 % of control

CC(=O)N(C)c1ccc(Nc2cc(C)[nH]c3ccc4ncnc4c23)cc1
T/C (dose: 50.0 mg/kg/injection, schedule: Q04DX004 (sc), vehicle: saline with Tween-80): 95 % of control
T/C (dose: 100.0 mg/kg/injection, schedule: Q04DX004 (sc), vehicle: saline with Tween-80): 68 % of control
T/C (dose: 200.0 mg/kg/injection, schedule: Q04DX004 (sc), vehicle: saline with Tween-80): 79 % of control

[Cl][Sn]([c]1ccccc1)[c]1ccccc1
T/C [3]: 59 % of control
T/C (dose: 150.0 mg/kg/injection, schedule: Q04DX004 (sc), vehicle: saline): 67 % of control
T/C (dose: 300.0 mg/kg/injection, schedule: Q04DX004 (sc), vehicle: saline): 63 % of control
T/C (dose: 600.0 mg/kg/injection, schedule: Q04DX004 (sc), vehicle: saline): 62 % of control

C(=N/NC1=NCCN1)/c1c2ccccc2c(/C=N\NC2=NCCN2)c2ccccc12
T/C (dose: 18.75 mg/kg/injection, schedule: Q04DX004 (sc), vehicle: saline): 83 % of control
T/C (dose: 37.5 mg/kg/injection, schedule: Q04DX004 (sc), vehicle: saline): 105 % of control
T/C [3]: 75 % of control

CC[C@]1(O)C[C@H]2CN(CCc3c([nH]c4ccccc34)[C@@](C(=O)OC)(c3cc4c(cc3OC)N(C=O)[C@H]3[C@@](O)(C(=O)OC)[C@H](OC(C)=O)[C@]5(CC)C=CCN6CC[C@]43[C@@H]65)C2)C1
T/C (dose: 0.13 mg/kg/injection, schedule: Q01DX010 (sc), vehicle: saline): 86 % of control
T/C (dose: 0.25 mg/kg/injection, schedule: Q01DX010 (sc), vehicle: saline): 84 % of control

CCNC(=O)OCc1c(COC(=O)NCC)c(-c2ccc(Cl)c(Cl)c2)n2c1CCC2
T/C (dose: 75.0 mg/kg/injection, schedule: Q04DX004 (sc), vehicle: saline with Tween-80): 5 % of control and 19 % of control
T/C [2]: 66 % of control

CNC(=O)OCc1c(COC(=O)NC)c(-c2ccccc2)n(C)c1-c1ccccc1
T/C (dose: 50.0 mg/kg/injection, schedule: Q04DX004 (sc), vehicle: distilled water + Tween-80): 44 % of control
T/C (dose: 200.0 mg/kg/injection, schedule: Q04DX004 (sc), vehicle: distilled water + Tween-80): 68 % of control
T/C (dose: 400.0 mg/kg/injection, schedule: Q04DX004 (sc), vehicle: distilled water + Tween-80): 104 % of control

O=c1n(CC2CO2)c(=O)n(CC2CO2)n1CC1CO1 (stereo unspecified)
T/C (dose: 37.5 mg/kg/injection, schedule: Q04DX004 (sc), vehicle: suspension in saline): 76 % of control
